Results: article PMC11451635, “A Broad Spectrum Lasso Peptide Antibiotic Targeting the Bacterial Ribosome” (Research Square, 2024)
Converted amounts (≈) assume the structure as drawn. “Also recorded” adds a separate entry of the source. Like-named read-outs stand apart in the source and are kept apart here. Where a SMILES comes first, the peptide text is derived from it. Bridges are numbered along the chain shown (N, C = ends).

Experiments:
[1] = system: bacteria (Table 1); assay: MIC in nutrient-limited media; assay type: cell-based; conditions: nutrient-limited media vs MHB
Experimental: (§1) MICs were determined using broth microdilution method in cation-adjusted Mueller-Hinton Broth (MHBII, BD Difco) following standard procedures unless stated otherwise. Mycobacteria susceptibility was tested in Middlebrook 7H9 medium supplemented with 10% OADC Enrichment (oleic acid, bovine albumin, dextrose, and catalase) (BD Difco). The compounds (2 to 4 μl) were mixed with diluted cultures (5–7 × 10^5 cfu/mL) in MHB (196 to 198 μL) in 96-well round-bottom plates, and 2-fold serial dilutions were made. Plates were incubated at 37°C for 18–22 h, and OD600 readings were taken on Synergy Microplate Reader (Biotek). MIC was determined to be the lowest concentration of antibiotics with no visible growth. For Mycobacterial cultures, the plates were read after two to three days. Susceptibility was also assessed in MOPS minimal medium with 0.4% glucose (M2106 Teknova) and RPMI-1640 medium. Serum effects were tested in MHB with 10% or 50% fetal bovine serum (Invitrogen) or human serum (Heat Inactivated, from human male AB plasma; Sigma-Aldrich). For anaerobic conditions, E. coli was incubated in BD GasPak™ EZ pouch systems. To adjust the pH of the media, 1M NaOH or 1N HCl was used.

[2] = system: rabbit reticulocyte lysate (luc mRNA); assay: In vitro translation in rabbit reticulocyte lysate; assay type: biochemical
Experimental: The effect of LAR on eukaryotic translation was assessed using Rabbit Reticulocyte Lysate System (L4960, Promega) programmed with firefly luciferase mRNA. In vitro reactions were assembled according to the manufacturer’s protocol in a nal volume of 10 μL supplemented with 0.02–50 μM of LAR or no antibiotic and incubated for 90 min at 30°C. After that, 2.5 μL from each reaction was mixed with 50 μl of prewarmed luciferase assay reagent, and the luminescence was measured in Infinite M200 PRO plate reader (TECAN) for 10 min at 25°C. The assay was performed in triplicate.

[3] = system: E. coli ribosome; assay: Translocation inhibition assay; assay type: biochemical, Escherichia coli; conditions: 62.5 μM LAR or 250 μM negamycin, EF-G/GTP, primer extension
[4] = system: E. coli BW25113 membrane; assay: Propidium iodide uptake assay; assay type: cell-based, Escherichia coli; conditions: propidium iodide 4 μM, 30 min, RT, fluorescence
Experimental: E. coli BW25113 cells were prepared as described above and mixed with propidium iodide (final concentration 4 μM). Cell suspension (190 μL) was then placed into wells of a 96-well black-wall plate and supplemented with 10 μL of compounds at various concentrations. Fluorescence (lex/lem: 535/617 nm) was monitored for 30 min at RT in a Synergy Microplate Reader (Biotek). Colistin was used as a positive control.

[5] = system: E. coli BW25113; assay: Selection of spontaneous resistant mutants; assay type: cell-based, Escherichia coli; conditions: ~10^9 cfu on MOPS minimal agar, 37°C, 24–48 h
[6] = system: B. subtilis 168; assay: Selection of spontaneous resistant mutants; assay type: cell-based, Bacillus subtilis; conditions: ~10^9 cfu on Mueller-Hinton agar, 37°C, 24–48 h
[7] = system: E. coli; assay: MIC under anaerobic conditions; assay type: cell-based, Escherichia coli; conditions: anaerobic vs aerobic
Experimental: as §1

[8] = system: T. thermophilus 70S ribosome; assay: X-ray structure of ribosome complex; assay type: binding, Thermus thermophilus
[9] = system: common anaerobe components of the human microbiome; assay: Activity against human gut microbiome bacteria; assay type: cell-based; conditions: BHI, anaerobic, 37 °C
Experimental: For MIC testing using human microbiota strains, the cultures were grown in BHI supplemented with L-cysteine (0.5g/L), Hemin (10mg/L), and Vitamin K (1mg/L) in anaerobic chambers (37 °C, 5% H2, 10% CO2, 85% N2). Candida albicans was cultivated in yeast nitrogen base (YNB) medium without amino acids (BD Difco).

[10] = system: E coli BW25113 ΔbamBΔtolC; conditions: 18–22 h
[11] = system: E coli BW25113 ΔbamB; conditions: 18–22 h
[12] = system: E coli BW25113 ΔtolC; conditions: 18–22 h
[13] = system: Pseudomonas aeruginosa PAO1
[14] = system: M. smegmatis MC^2 155
[15] = system: Clostridium perfringens GC1584; conditions: column MHB; method: BHI + L-cysteine, hemin, vitamin K, anaerobic, 37 °C
[16] = system: E. coli cell-free transcription-translation system (gfp mRNA); assay: In vitro translation, GFP mRNA
[17] = system: HEK293 cells; assay: Cytotoxicity against human cells
[18] = system: A. baumannii C0286; assay: Neutropenic mouse thigh-infection model
[19] = system: E. coli SQ110DTC; assay: Selection of spontaneous rRNA resistant mutants
[20] = system: E. coli strain CA244 lacZ C1456T; assay: Miscoding assay (lacZ premature stop codon readthrough); conditions: MOPS agar, X-gal 80 μg/ml, IPTG 250 μM; 60.7 μg LAR spotted, ~18 h, 37°C

## CC(C)[C@H](NC(=O)CNC(=O)[C@H](CCCNC(=N)N)NC(=O)CNC(=O)[C@H](Cc1ccccc1)NC(=O)[C@H](CCCCN)NC(=O)CNC(=O)[C@@H]1CC(=O)N[C@@H](CO)C(=O)N[C@@H](CCCCN)C(=O)N[C@@H](CCCCN)C(=O)N[C@@H](CO)C(=O)N[C@@H](CCCCN)C(=O)N2CCC[C@H]2C(=O)NCC(=O)N1)C(=O)N[C@@H](CCCCN)C(=O)N[C@@H](CCCNC(=N)N)C(=O)NCC(=O)O [LAR, lariocidin] (SKKSKPGDGKFGRGVKRG-OH; lactam N-8)
[1]
  MIC reduction in nutrient-limited media: ≤ 128 fold
[2]
  Effect on eukaryotic translation: only a marginal effect on eukaryotic translation
[2]; luc mRNA, 0.02–50 μM LAR, 90 min, 30°C, luminescence, mean of three experiments, read-out: IC50, protein biosynthesis
  IC50: 14.2 µM
[2]; ratio to E. coli system IC50
  IC50 in mammalian cell-free translation vs bacterial: ~ 58 fold
[3]
  Inhibition of ribosome translocation: inhibits ribosome translocation; also recorded: this reaction was inhibited when LAR was present
[4]
  Membrane permeabilization: did not permeabilize
[5]
  Frequency of resistant mutants: ~ 10^−8
[6]
  Frequency of resistant mutants: ~ 10^−8
[7]
  Increase in MIC under anaerobic conditions: 4-to-8 fold
[8]; 70S ribosome with mRNA and tRNAs, 250 μM antibiotic
  Ribosome binding (X-ray structure): binds to the small ribosomal subunit at a distinct site adjacent to the decoding center
[8]; Tth ribosome lacking mRNA and tRNAs (protein Y complex), 2.6 Å
  Ribosome binding without mRNA and tRNAs: the presence of A-site tRNA is not essential for LAR binding to the ribosome
[9]
  Activity vs gut microbiome anaerobes: no activity
[10]; MHB, 37°C
  MIC: 2 to 4 µg/mL
[10]; RPMI-1640, 37°C
  MIC: ≤0.25 µg/mL
[11]; MHB, 37°C
  MIC: 32 µg/mL (≈ 17.1 µM)
[11]; RPMI-1640, 37°C
  MIC: 1 µg/mL (≈ 0.534 µM)
[12]; MHB, 37°C
  MIC: 2 to 4 µg/mL
[12]; RPMI-1640, 37°C
  MIC: 0.5 µg/mL (≈ 0.267 µM)
[13]
  MIC: 64 to 128 µg/mL
[14]
  MIC: 1 to 2 µg/mL
  MIC (text): 1 to 2 µg/mL
[15]
  MIC: >256 µg/mL
[16]; E. coli in vitro transcription-translation system, DNA or RNA
  IC50 class in words, bacterial translation: submicromolar
[16]; read-out: IC50, protein synthesis, gfp mRNA, E. coli cell-free system, real-time sfGFP fluorescence, 1 h, mean of three experiments
  IC50: 0.24 µM
[17]
  Cytotoxicity against human cells: no human cell toxicity; also recorded: did not display hemolytic activity or cytotoxicity against human cells
[18]; 50 mg kg^−1 i.p. at 1, 4, 8 and 20 h post-infection, 24 h, vs vehicle, n = 8 treated
  Reduction in bacterial burden, blood: 2 orders of magnitude
[18]; 50 mg kg^−1 i.p. at 1, 4, 8 and 20 h post-infection, 24 h, vs vehicle, n = 15 treated
  Reduction in bacterial burden, spleen: 2 orders of magnitude
[18]; 50 mg kg^−1 i.p. at 1, 4, 8 and 20 h post-infection, 24 h, vs vehicle, n = 30 treated
  Reduction in bacterial burden, thigh: 2 orders of magnitude
[18]; mouse model of A. baumannii infection
  In vivo activity: potent in vivo activity
[18]; over 48 h post-infection, 50 mg kg^−1 i.p. x4
  Survival: 100%
[18]; vs control mice
  Appearance of treated mice: appeared much healthier than control mice
[19]; 16S rRNA resistance mutations, Extended Data Fig. 6a
  Effect of selected rRNA substitutions on MIC: modest effects
[19]; MHB/agar, 64 μg/mL LAR (~4xMIC), 48 h, 37°C
  Frequency of resistant clones: ~ 2×10^−8
[20]
  Miscoding / premature stop codon readthrough: induces miscoding; also recorded: induces premature stop codon readthrough
